Columns and labels:
Type in all cases: physicochemical
[1] = Hygroscopicity Test 2 (25° C. and 84% RH; free base, salts and salt mixtures); settings: for Appearance / Water content / Purity: 25° C. and 84% RH, dark; for Purity: HPLC
Method: (§1) Hygroscopicity of Compound 1 or the substance in the form of a salt can be evaluated by putting a sample on a glass weighing dish, storing the dish in a dark place for a given period of time in an open state at a temperature of 25 to 40° C. under a humidification condition of about 75 to 94% relative humidity, and then observing or measuring appearance, purity, water content and the like of Compound 1 or the substance in the form of a salt. Increase of water content before and after storage especially serves as an important hygroscopic index. For example, the evaluation is preferably performed after storage conditions of 25° C. and 84% RH. • High performance liquid chromatography apparatus: LC-10A Series (Shimadzu) or Agilent 1100 series (Agilent Technologies) • Solution concentration: 500 μg/ml • Injection: 10 μl • Detector: Ultraviolet absorptiometer (measurement wavelength: 245 nm) • Column: XBridge Shield RP18 5 μm, internal diameter: 4.6 mm, length: 15 cm (Waters) • Column temperature: Constant temperature around 40° C. • Mobile phase A: 20 mmol/l Sodium phosphate buffer (pH 7.0) • Mobile phase B: Acetonitrile • Liquid feeding program: A concentration gradient was formed by changing the mixing ratio of the mobile phase A and the mobile phase B as shown in Table 1. • Flow rate: 1.0 ml/minute • Water content measurement apparatus: AQ-7 (Hiranuma Sangyo) • Sample amount: 5 mg • Anolyte: Aqualyte RS (Sigma-Aldrich) • Catholyte: Aqualyte CN (Sigma-Aldrich) Compound 1 obtained by a method similar to the method described in Example 1 (two kinds of lots), the monohydrochloride obtained by the method described in Example 3, the dihydrochloride, and mixtures of the monohydrochloride and the dihydrochloride at ratios of 9:1, 8:2, 6:4, 4:6 and 2:8 were weighed on a glass weighing dish in an amount of each 40 mg, and each sample was stored in a dark place at 25° C. and 84% RH for 2 to 4 weeks. After the storage, appearance was evaluated by visual inspection. Further, purity was measured under the conditions of Test Example 7, and water content was measured under the conditions of Test Example 8.

[2] = Thermal stability test (sealed glass vial, dark place, 60° C.); settings: for Appearance / Water content / Purity: 60° C., dark, sealed vial; for Purity: HPLC
Method: Thermal stability of Compound 1 or the substance in the form of a salt can be evaluated by, for example, sealing a sample in a glass vial or the like, storing the vial under a severe temperature condition such as 40 to 80° C. in a dark place for a given period of time, and then observing or measuring appearance, purity, water content and the like of Compound 1 or the substance in the form of a salt. Change of purity before and after storage especially serves as an important index of thermal stability. For example, the evaluation is preferably performed under a storage condition of 60° C. • High performance liquid chromatography apparatus: LC-10A Series (Shimadzu) or Agilent 1100 series (Agilent Technologies) • Solution concentration: 500 μg/ml • Injection: 10 μl • Detector: Ultraviolet absorptiometer (measurement wavelength: 245 nm) • Column: XBridge Shield RP18 5 μm, internal diameter: 4.6 mm, length: 15 cm (Waters) • Column temperature: Constant temperature around 40° C. • Mobile phase A: 20 mmol/l Sodium phosphate buffer (pH 7.0) • Mobile phase B: Acetonitrile • Liquid feeding program: A concentration gradient was formed by changing the mixing ratio of the mobile phase A and the mobile phase B as shown in Table 1. • Flow rate: 1.0 ml/minute • Water content measurement apparatus: AQ-7 (Hiranuma Sangyo) • Sample amount: 5 mg • Anolyte: Aqualyte RS (Sigma-Aldrich) • Catholyte: Aqualyte CN (Sigma-Aldrich) The monohydrochloride obtained by the method described in Example 3, the monohydrobromide obtained by the method described in Example 4, and the dihydrochloride as a control were weighed in a glass vial in an amount of 40 mg each, and the glass vial was sealed. Each sample was stored in a dark place at 60° C. for 2 to 4 weeks, and after the storage, appearance was evaluated by visual inspection. Further, purity was measured under the conditions of Test Example 7, and water content was measured under the conditions of Test Example 8.

[3] = Hygroscopicity Test 1 (open glass weighing dish, dark place, 25° C. and 84% RH); settings: for Appearance / Water content / Purity: 25° C. and 84% RH, dark, open; for Purity: HPLC
Method: as §1, with “(Sigma-Aldrich) The” for “(Sigma-Aldrich) Compound 1 obtained by a method similar to the method described in Example 1 (two kinds of lots), the”, “the monohydrobromide obtained by” for “the dihydrochloride, and mixtures of”, “the method described in Example 4,” for “the monohydrochloride”, “dihydrochloride as a control” for “dihydrochloride at ratios of 9:1, 8:2, 6:4, 4:6 and 2:8”, “of” for “of each”, “40 mg each,” for “40 mg,”

[4] = Measurement of water content (coulometric titration method); settings: as prepared, sample 5 mg
Source text: For evaluation of purity of Compound 1 or the substance in the form of a salt, the area percentage method based on HPLC is convenient. For evaluation of water content of Compound 1 or the substance in the form of a salt, the volumetric titration method, the coulometric titration method described in Japanese Pharmacopoeia, General Test Methods, “Water Determination”, the loss on drying test and the like can be used. When sample weight is small, the coulometric titration method can be preferably chosen.

[5] = storage for two weeks at 25° C. and 84% RH
[6] = after storage at 60° C. for 4 weeks
[7] = after storage at 25° C. and 84% RH for 4 weeks

Row | Compound | Appearance ([1]; after 2 weeks) | Appearance ([1]; before storage) | Purity ([1]; after 2 weeks) | Purity ([1]; before storage) | Appearance ([2]; after 2 weeks) | Water content ([2]; after 2 weeks) | Appearance ([2]; before storage) | Water content ([2]; before storage) | Purity ([2]; after 2 weeks) | Purity ([2]; before storage) | Appearance ([3]; after 2 weeks) | Water content ([3]; after 2 weeks) | Appearance ([3]; before storage) | Water content ([3]; before storage) | Purity ([3]; after 2 weeks) | Purity ([3]; before storage) | also measured
1 | CN[C@H]1CCN(S(=O)(=O)c2cccc3cncc(Cl)c23)C1 [Compound 1, (S)-1-(4-chloro-5-isoquinolinesulfonyl)-3-(methylamino)pyrrolidine] | Slightly | Slightly | 99.9% | 99.9% | – | – | – | – | – | – | – | – | – | – | – | – | Water content ([1]; after 2 weeks, listed as Compound 1 (Lot 1)): 5.7%; Water content ([1]; after 2 weeks, listed as Compound 1 (Lot 2)): 7.6%; Appearance ([1]; after 4 weeks): Slightly; Water content ([1]; after 4 weeks, listed as Compound 1 (Lot 1)): 8.1%; Water content ([1]; after 4 weeks, listed as Compound 1 (Lot 2)): 9.1%; Water content ([1]; before storage, listed as Compound 1 (Lot 1)): 0.9%; Water content ([1]; before storage, listed as Compound 1 (Lot 2)): 1.7%; Purity ([1]; after 4 weeks): 99.9%; Moisture absorption ([1]; both lots, after storage at 25° C. and 84% RH for 4 weeks): further moisture absorption
2 | CN[C@H]1CCN(S(=O)(=O)c2cccc3cncc(Cl)c23)C1.Cl.Cl [Dihydrochloride, (S)-1-(4-chloro-5-isoquinolinesulfonyl)-3-(methylamino)pyrrolidine dihydrochloride, reference compound] | Pale | White | 99.9% | 100.0% | Pale brown | 2.93% | White | 3.76% | 99.5% | 98.1% | Brown | 15.24% | White | 3.76% | 99.3% | 98.1% | Change of appearance ([2]; after storage at 60° C. for 2 weeks, dihydrochloride): change of appearance; Changes in physicochemical properties ([2]; stability test at 60° C. for two weeks): changes in physicochemical properties; Moisture absorption ([3]; after storage at 25° C. and 84% RH for 2 weeks): marked moisture absorption; Change of appearance ([3]; after storage at 25° C. and 84% RH for 2 weeks, dihydrochloride): apparent change of appearance; Changes in physicochemical properties [3, 5]: changes in physicochemical properties; Hygroscopicity [3, 5]: remarkable hygroscopicity; Water content ([1]; after 2 weeks): 19.8%; Water content ([1]; before storage): 5.2%
3 | Br.CN[C@H]1CCN(S(=O)(=O)c2cccc3cncc(Cl)c23)C1 [Monohydrobromide, (S)-1-(4-chloro-5-isoquinolinesulfonyl)-3-(methylamino)pyrrolidine monohydrobromide] | – | – | – | – | White | 0.05% | White | 0.14% | 99.9% | 99.7% | White | 0.05% | White | 0.14% | 99.9% | 99.7% | Appearance ([2]; after 4 weeks): White; Water content ([2]; after 4 weeks): 0.05%; Purity ([2]; after 4 weeks): 99.8%; Thermal stability compared with the dihydrochloride ([2]; Test Example 9, 60° C.): more satisfactory thermal stability; Change of appearance [2, 6]: no change of appearance; Degradation of purity [2, 6]: no degradation of purity; Appearance ([3]; after 4 weeks): White; Water content ([3]; after 4 weeks): 0.05%; Purity ([3]; after 4 weeks): 99.7%; Hygroscopicity compared with the dihydrochloride ([3]; Test Example 10, 25° C. and 84% RH): remarkably lower hygroscopicity; Change of appearance [3, 7]: no change of appearance; Degradation of purity [3, 7]: no degradation of purity; Increase of water content [3, 7]: no substantial increase of water content; Water content [4]: 0.14%
